We go through one compound from paper PMC3530532, “Corticosteroid-Binding Globulin: Structure-Function Implications from Species Differences” (PLoS ONE, 2012).

In series [1] the target is T1, Cleaved human CBG-WT (Homo sapiens, UniProt P08185, K148A).
T1 construct: residues 11 to 383 of human CBG (Swiss-Prot entry P08185); GST (N, cleaved yes); made in house; host or cells: E. coli BL21 Star (DE3)
T1 sequence (P08185 33-366 K148A): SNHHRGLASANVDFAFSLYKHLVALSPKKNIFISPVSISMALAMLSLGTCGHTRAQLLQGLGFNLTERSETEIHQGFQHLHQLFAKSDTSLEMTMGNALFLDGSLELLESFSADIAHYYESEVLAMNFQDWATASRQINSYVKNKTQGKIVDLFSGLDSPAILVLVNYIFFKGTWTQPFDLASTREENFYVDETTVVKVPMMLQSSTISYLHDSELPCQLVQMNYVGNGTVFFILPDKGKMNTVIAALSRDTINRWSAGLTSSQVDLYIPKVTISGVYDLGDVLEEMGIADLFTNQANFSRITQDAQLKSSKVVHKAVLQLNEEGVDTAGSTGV
T1 sequence (P08185 367-405): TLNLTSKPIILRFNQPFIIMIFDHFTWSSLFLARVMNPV
The series can be described thus: Isothermal titration calorimetry, steroid titrated to neutrophil elastase-cleaved human CBG-WT. In kind it is binding. The note with it: ITC, 25°C. The method, then: (§1) Cleavage of the RCL in human and rat CBG mutants was accomplished with 100 mU human neutrophil elastase (Sigma-Aldrich) per mg purified CBG at 30°C and monitored by SDS-PAGE. The cleavage reaction was stopped with AEBSF. The protein samples were dialyzed against ITC buffer (20 mM potassium phosphate, 50 mM NaCl, pH 7.4) and titrated with steroids in a VP-ITC microcalorimeter (Microcal, Piscataway). All solutions were filtered (0.2 µm filter pore size) and degassed for 30 min prior to the titration experiments. The sample cell was filled with protein solution containing 15 µM rat CBG or 20 µM human CBG and titrated with steroid solutions containing 150 µM and 200 µM ligand, respectively. The titrations consisted of an initial injection of 2 µL followed by 25 consecutive injections of 10 µL ligand solution at 25°C. A spacing of 240 sec between the injections was used to allow a return to the baseline. Data points from the initial injection, which are generally affected by diffusion during the initial equilibration period after experiment setup, were discarded prior to data analysis. […] The binding curve was generated by plotting the heats of injections against the ratio of ligand to protein in the cell. Integrated heat data were analyzed using nonlinear regression fit with a one-site-binding model in the Origin-7™ software provided with the VP-ITC. Changes in the free energy and entropy can be calculated using the equation: ΔG° = −RTlnK = ΔH°−TΔS°. In this equation ΔG° is the change in Gibbs free energy, R the universal gas constant, T the temperature, and K the association constant. The change in enthalpy is denoted as ΔH°, and ΔS° is the change in entropy under standard conditions. The data shown in Table 2 were obtained from single titrations of each complex.
Background: ITC needs no label: the signal is the heat of the interaction.

For series [2], the system named is Cleaved human CBG-WT. The series is described as above. In kind it is binding. The note with it: human CBG, uncleaved vs neutrophil elastase-cleaved, ITC 25°C. The protocol:
as §1

The target of the next series is cleaved human CBG. Also noted: method as in PMID 21325280. The note with it: 37°C, cited from earlier work.
The subject of the next series is CBG. The note with it: cited from earlier work.

SMILES strings stand for the structures.

With `C[C@]12CCC(=O)C=C1CC[C@@H]1[C@@H]2[C@@H](O)C[C@@]2(C)[C@H]1CC[C@]2(O)C(=O)CO` [Hydrocortisone], at Cleaved human CBG-WT [1] (cleaved human CBG-WT), the “TΔS°” value is -18.7 kcal/mol, the “ΔG°” value is -8.68 kcal/mol and the “ΔH°” value is -27.41 kcal/mol. On Cleaved human CBG-WT [1] (single titration, elastase-cleaved human CBG-WT), this compound came in with a Kd of 442 ± 10 nM. The “reduction in binding affinity upon RCL cleavage” value in the series on Cleaved human CBG-WT [2] is listed as “ten-fold”. At cleaved human CBG (cleaved human CBG-WT, read-out: K d 37°C), the Kd was 1370 ± 124 nM. Moreover, the “difference of affinities of uncleaved and cleaved human CBG” value with cleaved human CBG (fluorescence titration) is “about 4.7 fold”. For the same compound, in the series on CBG, the “fraction circulating free in plasma” value was 4–5% and the “fraction of cortisol in plasma bound by CBG” value is 80–90%.
